Data reported in patent publication EP0540099A1, “Water soluble camptothecin derivatives” (priority 1991, dated 1993).

Test system: HT-29 human colon tumor cells
Assay: Human colorectal adenocarcinoma HT-29 xenograft in vivo assay
Conditions: female NU/NU mice; for in vivo Antitumor activity (tumor wt day-50/tumor wt day-14): HT-29 s.c. xenograft, optimal dose, subcutaneously twice a week for 5 weeks from day 14; for effect on tumor (stasis or regression): HT-29 xenograft, after 5 weeks of treatment (day 50), ratio of 1 = stasis, less than 1 = regression
Procedure: Female NU/NU mice weighing 21 ± 2g, are used for this modified version of the test described by B.C. Giovanella, et al., Science, 246 1046 (1989). Control and test animals are injected subcutaneously in the sub-scapular region with a suspension of 10⁶ viable HT-29 human colon tumor cells on day 0. Tumors are allowed to grow for 2 weeks prior to drug administration. For each drug, several doses are chosen based on its in vitro activity against topoisomerase I. Each dose level group contains 8 animals. The test compounds are prepared in either 0.1 M acetate buffer, pH 5 (vehicle "a") or 87.5% phosphate buffered saline, 12.375% dimethylsulfoxide, and 0.125% Tween 80 (trademark of ICI America for polyoxyethylenesorbitan monooleate) (vehicle "b") and are administered subcutaneously twice a week for 5 weeks beginning on day 14. Doses are given on a mg/kg basis according to the mean body weight for each cage.
Tumor weight is calculated from two perpendicular caliper measurements of the tumor using the formula, tumor weight = length x width² ÷ 2 [formula] in millimeters. For each animal, tumor weight is monitored over the course of the experiment. For each group, the results are expressed as the ratio of the mean tumor weight immediately after 5 weeks of treatment (day 50) divided by the mean tumor weight immediately before treatment (day 14). […] The criterion for antitumor activity is at least 50% inhibition of tumor growth after 5 weeks of dosing (day 50), giving a ratio of less than or equal to ten. TABLE B

[1] = vehicle a: 0.1 M acetate buffer, pH 5
[2] = vehicle b: 87.5% phosphate buffered saline, 12.375% dimethylsulfoxide, 0.125% Tween 80

Compound | in vivo Antitumor activity (tumor wt day-50/tumor wt day-14) [1] | effect on tumor (stasis or regression) | in vivo Antitumor activity (tumor wt day-50/tumor wt day-14) [2]
CC[C@@]1(O)C(=O)OCc2c1cc1n(c2=O)Cc2c-1nc1cc3c(cc1c2CN1CCN(C)CC1)OCCO3 [Example 11, 7-(4-methylpiperazinomethylene)-10, 11-ethylenedioxy-20(S)-camptothecin] | 0.6^a | tumor regression | –
CC[C@@]1(O)C(=O)OCc2c1cc1n(c2=O)Cc2c-1nc1cc3c(cc1c2CN(C)C)OCO3 [Example 2, 7-Dimethylaminomethylene-10, 11-methylenedioxy-20(S)-camptothecin] | – | – | 1.8^b
CC[C@@]1(O)C(=O)OCc2c1cc1n(c2=O)Cc2c-1nc1cc3c(cc1c2CN1CCN(C)CC1)OCO3 [Example 23, 7-(4-Methylpiperazinomethylene)-10, 11-methylenedioxy-20(S)-camptothecin] | 0.5^a | tumor regression | –
CC[C@@]1(O)C(=O)OCc2c1cc1n(c2=O)Cc2c-1nc1cc3c(cc1c2CN1CCC1)OCCO3 [Example 22, 7-Azetidinomethylene-10, 11-ethylenedioxy-20(S)-camptothecin] | 1.6^a | – | –
CCN(CC)Cc1c2c(nc3cc4c(cc13)OCCO4)-c1cc3c(c(=O)n1C2)COC(=O)[C@]3(O)CC [Example 14, 7-Diethylaminomethylene-10, 11-ethylenedioxy-20(S)-camptothecin] | 2.0^a | – | –
CC[C@@]1(O)C(=O)OCc2c1cc1n(c2=O)Cc2c-1nc1cc3c(cc1c2CN(C)C)OCCO3 [Example 4, 7-Dimethylaminomethylene-10, 11-ethylenedioxy-20(S)-camptothecin] | – | tumor stasis | –
CC[C@@]1(O)C(=O)OCc2c1cc1n(c2=O)Cc2c-1nc1cc3c(cc1c2CN1CCC1)OCO3 [Example 20, 7-Azetidinomethylene-10, 11-methylenedioxy-20(S)-camptothecin] | 1.5^a | – | –
CC[C@@]1(O)C(=O)OCc2c1cc1n(c2=O)Cc2c-1nc1cc3c(cc1c2CN1CCOCC1)OCCO3 [Example 6, 7-Morpholinomethylene-10, 11-ethylenedioxy-20(S)-camptothecin] | – | tumor stasis | 1.0^b
